Reference: US20200022370A1, “MICROBIOCIDAL OXADIAZOLE DERIVATIVES” (SYNGENTA PARTICIPATIONS AG, priority 2016, published 2020)

Assays:
Phakopsora pachyrhizi = Phakopsora pachyrhizi / soybean / leaf disc preventative (Asian soybean rust); type: in vivo; conditions: foliar, 200 ppm in the applied formulation, soybean leaf disks, inoculated one day after application, vs untreated, 12 to 14 days after application, read-out: disease control
Procedure: (§1) Leaf disks or leaf segments of various plant species are cut from plants grown in a greenhouse. The cut leaf disks or segments are placed in multiwell plates (24-well format) onto water agar. The leaf disks are sprayed with a test solution before (preventative) or after (curative) inoculation. Compounds to be tested are prepared as DMSO solutions (max. 10 mg/ml) which are diluted to the appropriate concentration with 0.025% Tween20 just before spraying. The inoculated leaf disks or segments are incubated under defined conditions (temperature, relative humidity, light, etc.) according to the respective test system. A single evaluation of disease level is carried out 3 to 14 days after inoculation, depending on the pathosystem. Percent disease control relative to the untreated check leaf disks or segments is then calculated.
Example 3: Fungicidal Activity Against Phakopsora pachyrhizi/Soybean/Leaf Disc Preventative (Asian Soybean Rust)
Soybean leaf disks are placed on water agar in multiwell plates (24-well format) and sprayed with the Formulated test compound diluted in water. One day after application leaf discs are inoculated by spraying a spore suspension on the lower leaf surface. After an incubation period in a climate cabinet of 24-36 hours in darkness at 20° C. and 75% rh leaf disc are kept at 20° C. with 12 h light/day and 75% rh. The activity of a compound is assessed as percent disease control compared to untreated when an appropriate level of disease damage appears in untreated check leaf disks (12 to 14 days after application).
(§2) The following compounds at 200 ppm in the applied Formulation give at least 80% disease control in this test when compared to untreated control leaf disks under the same conditions, which show extensive disease development.

[1] = tested on: Puccinia recondita f. Sp. Tritici; assay: Puccinia recondita f. sp. tritici / wheat / leaf disc preventative (brown rust); type: in vivo; conditions: foliar, 200 ppm in the applied formulation, wheat leaf segments cv. Kanzler, inoculated 1 day after application, vs untreated, 7 to 9 days after application, read-out: disease control
Procedure: as §1
Example 1: Fungicidal Activity Against Puccinia recondita f. Sp. Tritici/Wheat/Leaf Disc Preventative (Brown Rust)
Wheat leaf segments cv. Kanzler were placed on agar in multiwell plates (24-well format) and sprayed with the Formulated test compound diluted in water. The leaf disks were inoculated with a spore suspension of the fungus 1 day after application. The inoculated leaf segments were incubated at 19° C. and 75% relative humidity (rh) under a light regime of 12 hours light/12 hours darkness in a climate cabinet and the activity of a compound was assessed as percent disease control compared to untreated when an appropriate level of disease damage appears in untreated check leaf segments (7 to 9 days after application).
as §2

[2] = tested on: Glomerella lacenarium (Colletotrichum lacenarium); assay: Glomerella lacenarium (Colletotrichum lacenarium) liquid culture / cucumber / preventative (anthracnose); type: cell-based; conditions: 20 ppm, liquid culture in PDB, 24° C., inhibition of growth measured photometrically 3 to 4 days after application, vs untreated, read-out: disease control
Procedure: Mycelia fragments or conidia suspensions of a fungus prepared either freshly from liquid cultures of the fungus or from cryogenic storage, are directly mixed into nutrient broth. DMSO solutions of the test compound (max. 10 mg/ml) are diluted with 0.025% Tween20 by a factor of 50 and 10 μl of this solution is pipetted into a microtiter plate (96-well format). The nutrient broth containing the fungal spores/mycelia fragments is then added to give an end concentration of the tested compound. The test plates are incubated in the dark at 24° C. and 96% relative humidity. The inhibition of fungal growth is determined photometrically after 2 to 7 days, depending on the pathosystem, and percent antifungal activity relative to the untreated check is calculated.
Example 4: Fungicidal Activity Against Glomerella lacenarium (Colletotrichum lacenarium) Liquid Culture/Cucumber/Preventative (Anthracnose)
Conidia of the fungus from cryogenic storage are directly mixed into nutrient broth (PDB-potato dextrose broth). After placing a (DMSO) solution of test compound into a microtiter plate (96-well format), the nutrient broth containing the fungal spores is added. The test plates are incubated at 24° C. and the inhibition of growth is measured photometrically 3 to 4 days after application.
The following compounds at 20 ppm in the applied Formulation give at least 80% disease control in this test when compared to untreated control under the same conditions, which show extensive disease development.

[3] = tested on: Puccinia recondita f. Sp. Tritici; assay: Puccinia recondita f. sp. tritici / wheat / leaf disc curative (brown rust); type: in vivo; conditions: foliar, 200 ppm in the applied formulation, wheat leaf segments cv. Kanzler, compound applied 1 day after inoculation, vs untreated, 6 to 8 days after application, read-out: disease control
Procedure: as §1
Example 2: Fungicidal Activity Against Puccinia recondita f. sp. tritici/Wheat/Leaf Disc Curative (Brown Rust)
Wheat leaf segments cv. Kanzler are placed on agar in multiwell plates (24-well format). The leaf segments are then inoculated with a spore suspension of the fungus. Plates were stored in darkness at 19° C. and 75% relative humidity. The Formulated test compound diluted in water was applied 1 day after inoculation. The leaf segments were incubated at 19° C. and 75% relative humidity under a light regime of 12 hours light/12 hours darkness in a climate cabinet and the activity of a compound was assessed as percent disease control compared to untreated when an appropriate level of disease damage appears in untreated check leaf segments (6 to 8 days after application).
as §2

O=C(Cc1ccc2c(c1)OCO2)Nc1ccc(-c2noc(C(F)(F)F)n2)cc1 [Compound 1.12, 2-(1,3-benzodioxol-5-yl)-N-[4-[5-(trifluoromethyl)-1,2,4-oxadiazol-3-yl]phenyl]acetamide]
≥ 80%: pest or weed control at 200 ppm (Phakopsora pachyrhizi) | pest or weed control at 200 ppm [1] | inhibition of growth at 20 ppm [2]

COc1ncnc(OC)c1CC(=O)Nc1ccc(-c2noc(C(F)(F)F)n2)cc1 [Compound 1.36, 2-(4,6-dimethoxypyrimidin-5-yl)-N-[4-[5-(trifluoromethyl)-1,2,4-oxadiazol-3-yl]phenyl]acetamide]
≥ 80%: pest or weed control at 200 ppm (Phakopsora pachyrhizi) | pest or weed control at 200 ppm [1] | inhibition of growth at 20 ppm [2]

O=C(Nc1ccc(-c2noc(C(F)(F)F)n2)nc1)c1ccc(-n2ccnc2)cc1 [Compound 1.54, 4-imidazol-1-yl-N-[6-[5-(trifluoromethyl)-1,2,4-oxadiazol-3-yl]-3-pyridyl]benzamide]
≥ 80%: pest or weed control at 200 ppm (Phakopsora pachyrhizi) | pest or weed control at 200 ppm [1] | inhibition of growth at 20 ppm [2]

COc1ccc(CC(=O)Nc2ccc(-c3noc(C(F)(F)F)n3)cc2)cc1 [Compound 1.71, 2-(4-methoxyphenyl)-N-[4-[5-(trifluoromethyl)-1,2,4-oxadiazol-3-yl]phenyl]acetamide]
≥ 80%: pest or weed control at 200 ppm (Phakopsora pachyrhizi) | pest or weed control at 200 ppm [1] | inhibition of growth at 20 ppm [2]

O=C(Nc1ccc(-c2noc(C(F)(F)F)n2)cc1)C1CCCCO1 (stereo not drawn) [Compound 1.72, N-[4-[5-(trifluoromethyl)-1,2,4-oxadiazol-3-yl]phenyl] tetrahydropyran-2-carboxamide]
≥ 80%: pest or weed control at 200 ppm (Phakopsora pachyrhizi) | pest or weed control at 200 ppm [1] | inhibition of growth at 20 ppm [2]

O=C(CCO)Nc1ccc(-c2noc(C(F)(F)F)n2)cc1 [Compound 1.75, 3-hydroxy-N-[4-[5-(trifluoromethyl)-1,2,4-oxadiazol-3-yl]phenyl] propanamide]
≥ 80%: pest or weed control at 200 ppm [1] | inhibition of growth at 20 ppm [2] | pest or weed control at 200 ppm [3]

CSCC(C)C(=O)Nc1ccc(-c2noc(C(F)(F)F)n2)cc1 (stereo not drawn) [Compound 1.77, 2-methyl-3-methylsulfanyl-N-[4-[5-(trifluoromethyl)-1,2,4-oxadiazol-3-yl]phenyl] propanamide]
≥ 80%: pest or weed control at 200 ppm [1] | inhibition of growth at 20 ppm [2] | pest or weed control at 200 ppm [3]

CC(C)CC(=O)Nc1ccc(-c2noc(C(F)(F)F)n2)cc1 [Compound 1.85, 3-methyl-N-[4-[5-(trifluoromethyl)-1,2,4-oxadiazol-3-yl]phenyl]butanamide]
≥ 80%: pest or weed control at 200 ppm (Phakopsora pachyrhizi) | pest or weed control at 200 ppm [1] | inhibition of growth at 20 ppm [2]

CCCC(C)C(=O)Nc1ccc(-c2noc(C(F)(F)F)n2)cc1 (stereo not drawn) [Compound 1.86, 2-methyl-N-[4-[5-(trifluoromethyl)-1,2,4-oxadiazol-3-yl]phenyl] pentanamide]
≥ 80%: pest or weed control at 200 ppm (Phakopsora pachyrhizi) | pest or weed control at 200 ppm [1] | inhibition of growth at 20 ppm [2]

Cc1ccnn1CC(=O)Nc1ccc(-c2noc(C(F)(F)F)n2)cc1 [Compound 1.87, 2-(5-methylpyrazol-1-yl)-N-[4-[5-(trifluoromethyl)-1,2,4-oxadiazol-3-yl]phenyl]acetamide]
≥ 80%: pest or weed control at 200 ppm [1] | inhibition of growth at 20 ppm [2] | pest or weed control at 200 ppm [3]

CC1CC1C(=O)Nc1ccc(-c2noc(C(F)(F)F)n2)cc1 (stereo not drawn) [Compound 1.90, 2-methyl-N-[4-[5-(trifluoromethyl)-1,2,4-oxadiazol-3-yl]phenyl]cyclo-propanecarboxamide]
≥ 80%: pest or weed control at 200 ppm (Phakopsora pachyrhizi) | pest or weed control at 200 ppm [1] | inhibition of growth at 20 ppm [2]

CCCCC(=O)Nc1ccc(-c2noc(C(F)(F)F)n2)cc1 [Compound 1.92, N-[4-[5-(trifluoromethyl)-1,2,4-oxadiazol-3-yl]phenyl]pentanamide]
≥ 80%: pest or weed control at 200 ppm (Phakopsora pachyrhizi) | pest or weed control at 200 ppm [1] | inhibition of growth at 20 ppm [2]

CC(C)OCC(=O)Nc1ccc(-c2noc(C(F)(F)F)n2)cc1 [Compound 1.101, 2-isopropoxy-N-[4-[5-(trifluoromethyl)-1,2,4-oxadiazol-3-yl]phenyl]acetamide]
≥ 80%: pest or weed control at 200 ppm [1] | inhibition of growth at 20 ppm [2] | pest or weed control at 200 ppm [3]

O=C(Cn1cccn1)Nc1ccc(-c2noc(C(F)(F)F)n2)cc1 [Compound 1.104, 2-pyrazol-1-yl-N-[4-[5-(trifluoromethyl)-1,2,4-oxadiazol-3-yl]phenyl]acetamide]
≥ 80%: pest or weed control at 200 ppm [1] | inhibition of growth at 20 ppm [2] | pest or weed control at 200 ppm [3]

O=C(CCc1ccncc1)Nc1ccc(-c2noc(C(F)(F)F)n2)cc1 [Compound 1.107, 3-(4-pyridyl)-N-[4-[5-(trifluoromethyl)-1,2,4-oxadiazol-3-yl]phenyl] propanamide]
≥ 80%: pest or weed control at 200 ppm [1] | inhibition of growth at 20 ppm [2] | pest or weed control at 200 ppm [3]

O=C(Nc1ccc(-c2noc(C(F)(F)F)n2)cc1)C1CC1(F)F (stereo not drawn) [Compound 1.118, 2,2-difluoro-N-[4-[5-(trifluoromethyl)-1,2,4-oxadiazol-3-yl]phenyl]cyclo-propanecarboxamide]
≥ 80%: pest or weed control at 200 ppm (Phakopsora pachyrhizi) | pest or weed control at 200 ppm [1] | inhibition of growth at 20 ppm [2]

O=C(CC1CC1(F)F)Nc1ccc(-c2noc(C(F)(F)F)n2)cc1 (stereo not drawn) [Compound 1.124, 2-(2,2-difluorocyclopropyl)-N-[4-[5-(trifluoromethyl)-1,2,4-oxadiazol-3-yl]phenyl]acetamide]
≥ 80%: pest or weed control at 200 ppm (Phakopsora pachyrhizi) | pest or weed control at 200 ppm [1] | inhibition of growth at 20 ppm [2]

O=C(CC(F)(F)F)Nc1ccc(-c2noc(C(F)(F)F)n2)cc1 [Compound 1.125, 3,3,3-trifluoro-N-[4-[5-(trifluoromethyl)-1,2,4-oxadiazol-3-yl]phenyl] propanamide]
≥ 80%: pest or weed control at 200 ppm (Phakopsora pachyrhizi) | pest or weed control at 200 ppm [1] | inhibition of growth at 20 ppm [2]

CC1(C(=O)Nc2ccc(-c3noc(C(F)(F)F)n3)cc2)CC1 [Compound 2.11, 1-methyl-N-[4-[5-(trifluoromethyl)-1,2,4-oxadiazol-3-yl]phenyl] cyclopropane-carboxamide]
≥ 80%: pest or weed control at 200 ppm (Phakopsora pachyrhizi) | pest or weed control at 200 ppm [1] | inhibition of growth at 20 ppm [2]
